One series has as its target HIS-KRAS(G12C) (Homo sapiens (Human), UniProt P01116, G12C). Nature of the series: SOS1 catalyzed nucleotide exchange assay (TR-FRET). Type of series: biochemical. Particulars: GDP-loaded HIS-KRAS(G12C), 1 hour pre-incubation, TR-FRET. How it is done: TR-FRET signals were then read on Tecan Spark multimode microplate reader. […] TR-FRET ratios for each individual wells were calculated by equation: TR-FRET ratio=(Signal F515/Signal F486)*10000. Then the data were analyzed using a 4-parameter logistic model to calculate IC50 values.

Series [1] has as its system NCI-H358 cells expressing KRAS G12C mutant protein. Nature of the series: Phospho-ERK1/2(THR202/TYR204) HTRF assay. In kind it is cell-based. Conditions: 2 hours incubation, read-out: p-ERK IC50. How it is done:
The NCI-H358 cells in culture medium were seeded in 96-well plates at a concentration of 40,000 cells/well and then put in a 37° C./5% CO2 cell incubator to incubate overnight. […] After 2 hours incubation in a 37° C./5% CO2 cell incubator, the assay medium in 96-well plates was removed, then 50 μL of 1× blocking reagent-supplemented lysis buffer (Cisbio) was added and the plates were incubated at 25° C. for 45 min with shaking. 10 μL of cell lysates from the 96-well plates were transferred to a 384-well plate (Greiner) containing 2.5 μL/well HTRF® pre-mixed antibodies (Cisbio 64AERPEH). Incubate 4 hours at 25° C. and then read HTRF signals on Tecan Spark multimode microplate reader. The data were analyzed using a 4-parameter logistic model to calculate IC50 values.

A short description of series [2]: Mouse pharmacokinetic study. Particulars: plasma, Balb/c mouse (female). In kind it is in vivo, Balb/c mouse. How it is done: The purpose of this study was to evaluate the pharmacokinetic properties of compounds in Balb/c mouse (♀) following single dose administration. The day before administration, mice were fasted overnight and free access to water. Six mice were needed for each compound and the six mice were divided into two groups (n=3/group), group A and group B. Mice in group A were treated with a single 3 mg/kg dose of compound (iv). Mice in group B were treated with a single 10 mg/kg dose of compound (po). For each mouse in group A, blood samples were collected at pre-dose, and at the time point of 0.083, 0.25, 0.5, 1, 2, 4, 6, 8 and 24 h post-dose. For each mouse in group B, blood samples were collected at pre-dose, and at the time point of 0.25, 0.5, 1, 2, 3, 4, 6, 8 and 24 h post-dose. Blood samples were placed on ice until centrifugation to obtain plasma samples. The plasma samples were stored at −80° C. until analysis. The concentration of compound in plasma samples was determined using a LC-MS/MS method.

A short description of series [3]: Dog pharmacokinetic study. In kind it is in vivo, beagle dog. Particulars: plasma, beagle dog; for clearance / Vd: 1 mg/kg, iv; for Vd: read-out: VSS; for AUC(0-t) / Cmax / bioavailability: 3 mg/kg, po; for AUC(0-t): read-out: AUC0-24h; for Cmax: read-out: Cmax; for bioavailability: read-out: Oral BA (F %). Here is the method:
(§1) The purpose of this study was to evaluate the pharmacokinetic properties of compounds in beagle dog following single dose administration. The day before administration, dogs were fasted overnight and free access to water. Four beagle dogs were needed for each compound and the four dogs were divided into two groups, group A and group B (one male(♂) and one female (♀) in each group). Dogs in group A were treated with a single 1 mg/kg dose of compound (iv). Dogs in group B were treated with a single 3 mg/kg dose of compound (po). For dogs in group A, blood samples were collected at pre-dose, and at the time point of 0.083, 0.25, 0.5, 1, 2, 4, 6, 8 and 24 h post-dose. For dogs in group B, blood samples were collected at pre-dose, and at the time point of 0.25, 0.5, 1, 2, 4, 6, 8 and 24 h post-dose. Blood samples were placed on ice until centrifugation to obtain plasma samples. The plasma samples were stored at −80° C. until analysis. The concentration of compound in plasma samples was determined using a LC-MS/MS method.

Series [4] is described as follows: Cynomolgus monkey pharmacokinetic study. In kind it is in vivo. Particulars: plasma, cynomolgus monkey; for clearance / Vd: 1 mg/kg, iv; for Vd: read-out: VSS; for AUC(0-t) / Cmax / bioavailability: 3 mg/kg, po; for AUC(0-t): read-out: AUC0-24h; for Cmax: read-out: Cmax; for bioavailability: read-out: Oral BA (F %). Here is the method: as §1, with “cynomolgus monkey” for “beagle dog”, “monkeys” for “dogs”, “monkeys are” for “beagle dogs were”, “male (♂)” for “male(♂)”, “Monkeys” for “Dogs”

Read-outs that look alike come from different tables or passages of the source.

Sequence of HIS-KRAS(G12C) (P01116 other isoform, or with tags, fused parts or gaps G12C): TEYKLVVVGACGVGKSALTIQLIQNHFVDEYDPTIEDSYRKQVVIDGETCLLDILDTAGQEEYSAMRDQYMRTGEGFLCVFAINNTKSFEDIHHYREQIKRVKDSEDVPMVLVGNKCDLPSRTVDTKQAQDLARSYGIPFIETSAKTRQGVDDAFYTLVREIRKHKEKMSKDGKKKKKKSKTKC

Usually IC50 stands for the concentration that gives 50% inhibition. Take `C=CC(=O)N1CCN(c2nc(=O)n(-c3c(C)ccnc3C(C)C)c3nc(-c4c(N)c(F)c(F)c(F)c4F)c(F)cc23)CC1` (single isomer, unassigned) [Compound 3-1, 4-(4-acryloylpiperazin-1-yl)-7-(2-amino-3,4,5,6-tetrafluorophenyl)-6-fluoro-1-(2-isopropyl-4-methylpyridin-3-yl)pyrido[2,3-d]pyrimidin-2(1H)-one]: the IC50 against HIS-KRAS(G12C) stood at 3.14 nM; in series [1] (Homo sapiens, NCI-H358, 2 h) it was 25.4 nM.
Turning to `C=CC(=O)N1[C@H](C)CN(c2nc(=O)n(-c3c(C)ccnc3C(C)C)c3nc(-c4c(N)c(F)c(F)c(F)c4F)c(F)cc23)C[C@@H]1C` [Compound 5, 4-((3S,5R)-4-acryloyl-3,5-dimethylpiperazin-1-yl)-7-(2-amino-3,4,5,6-tetrafluorophenyl)-6-fluoro-1-(2-isopropyl-4-methylpyridin-3-yl)pyrido[2,3-d]pyrimidin-2(1H)-one], the IC50 against HIS-KRAS(G12C) came to 5.41 nM; in series [1] (Homo sapiens, NCI-H358, 2 h), 48.8 nM.
Consider `C=CC(=O)N1[C@H](C)CN(c2nc(=O)n(-c3c(C)ccnc3C(C)C)c3nc(-c4c(N)c(F)c(F)c(F)c4F)c(F)cc23)C[C@@H]1C` (single isomer, unassigned) [Compound 5-2], for which the IC50 on HIS-KRAS(G12C) stood at 96.1 nM; in series [1] it was 774 nM.
Regarding `C=CC(=O)N1CCN(c2nc(=O)n(-c3c(C)ccnc3C(C)C)c3nc(-c4c(F)c(F)c(F)c(N)c4Cl)c(F)cc23)[C@@H](C)C1` (single isomer, unassigned) [Compound 1-2], the IC50 against HIS-KRAS(G12C) worked out at 121 nM.
`C=CC(=O)N1CCN(c2nc(=O)n(-c3c(C)ccnc3C(C)C)c3nc(-c4c(F)c(F)c(F)c(N)c4Cl)c(F)cc23)[C@@H](C)C1` (single isomer, unassigned) [Compound 1-1]: the IC50 turned out to be 4.08 nM against HIS-KRAS(G12C) and 16.6 nM in series [1] (Homo sapiens, NCI-H358, 2 h).
As to `C=CC(=O)N1CCN(c2nc(=O)n(-c3c(C)ccnc3C(C)C)c3nc(-c4c(N)c(F)c(F)c(F)c4F)c(F)cc23)CC1` [Compound 3, 4-(4-acryloylpiperazin-1-yl)-7-(2-amino-3,4,5,6-tetrafluorophenyl)-6-fluoro-1-(2-isopropyl-4-methylpyridin-3-yl)pyrido[2,3-d]pyrimidin-2(1H)-one], the IC50 against HIS-KRAS(G12C) is 5.51 nM.
Consider `C=CC(=O)N1CCN(c2nc(=O)n(-c3c(C)ccnc3C(C)C)c3nc(-c4c(N)c(F)c(F)c(F)c4F)c(F)cc23)C[C@H]1C` (single isomer, unassigned) [Compound 4-1], for which the IC50 was 3.31 nM on HIS-KRAS(G12C) and 40.9 nM in series [1] (Homo sapiens, NCI-H358, 2 h).
The molecule `C=CC(=O)N1CCN(c2nc(=O)n(-c3c(C)ccnc3C(C)C)c3nc(-c4c(N)c(F)c(F)c(F)c4F)c(F)cc23)CC1` (single isomer, unassigned) [Compound 3-2, 4-(4-acryloylpiperazin-1-yl)-7-(2-amino-3,4,5,6-tetrafluorophenyl)-6-fluoro-1-(2-isopropyl-4-methylpyridin-3-yl)pyrido[2,3-d]pyrimidin-2(1H)-one] displayed an IC50 at HIS-KRAS(G12C) of 234 nM.
`C=CC(=O)N1CCN(c2nc(=O)n(-c3c(C)ccnc3C(C)C)c3nc(-c4c(N)c(F)c(F)c(F)c4F)c(F)cc23)C[C@H]1C` [Compound 4, 4-((R)-4-acryloyl-3-methylpiperazin-1-yl)-7-(2-amino-3,4,5,6-tetrafluorophenyl)-6-fluoro-1-(2-isopropyl-4-methylpyridin-3-yl)pyrido[2,3-d]pyrimidin-2(1H)-one] displayed an IC50 against HIS-KRAS(G12C) of 10.3 nM.
On the same count and under the same terms, the same measure for `C=CC(=O)N1[C@H](C)CN(c2nc(=O)n(-c3c(C)ccnc3C(C)C)c3nc(-c4c(F)c(F)c(F)c(N)c4Cl)c(F)cc23)C[C@@H]1C` (single isomer, unassigned) [Compound 7-2]: 307 nM; for `C=CC(=O)N1[C@H](C)CN(c2nc(=O)n(-c3c(C)ccnc3C(C)C)c3nc(-c4c(F)c(F)c(F)c(N)c4Cl)c(F)cc23)C[C@@H]1C` [Compound 7, 4-((3S,5R)-4-acryloyl-3,5-dimethylpiperazin-1-yl)-7-(3-amino-2-chloro-4,5,6-trifluorophenyl)-6-fluoro-1-(2-isopropyl-4-methylpyridin-3-yl)pyrido[2,3-d]pyrimidin-2(1H)-one]: 17.5 nM.
The clearance is the rate of elimination divided by the concentration. The Cmax is the highest concentration seen after dosing. On to `C=CC(=O)N1CCN(c2nc(=O)n(-c3c(C)ccnc3C(C)C)c3nc(-c4c(O)cccc4F)c(F)cc23)[C@@H](C)C1` [Amg-510, reference compound], for which the clearance in series [2] (3 mg/kg, iv) is 40.5 mL/min/kg; in series [3] (female), 20.1 mL/min/kg; in series [3] (male) it was 21.1 mL/min/kg; in series [4] (female), 84.3 mL/min/kg; in series [4] (male), 25.5 mL/min/kg. For the same molecule, the Vd was 1.64 L/kg in series [2] (3 mg/kg, iv, read-out: Vss); 0.543 L/kg in series [3] (female); 0.535 L/kg in series [3] (male); 2.01 L/kg in series [4] (female); 0.775 L/kg in series [4] (male). Also, the AUC(0-t) in series [2] (10 mg/kg, po, read-out: AUC0-24 h) came out at 1810 ng·h/mL; in series [3] (female), 404 ng·h/mL; in series [3] (male), 1990 ng·h/mL; in series [4] (female) it was 241 ng·h/mL; in series [4] (male), 214 ng·h/mL. Besides, the highest concentration (Cmax) in series [2] (10 mg/kg, po, read-out: Cmax) came out at 1600 ng/mL; in series [3] (female) it was 450 ng/mL; in series [3] (male) it was 1840 ng/mL; in series [4] (female) it was 100 ng/mL; in series [4] (male), 133 ng/mL. The bioavailability amounted to 43.9% in series [2] (10 mg/kg, po, read-out: Oral BA (F %)); 16.4% in series [3] (female); 84.4% in series [3] (male); 41.3% in series [4] (female); 11% in series [4] (male).
On HIS-KRAS(G12C), `C=CC(=O)N1CCN(c2nc(=O)n(-c3c(C)ccnc3C(C)C)c3nc(-c4c(N)c(F)c(F)c(F)c4F)c(F)cc23)C[C@H]1C` (single isomer, unassigned) [Compound 4-2] registered an IC50 of 278 nM.
Same read-out and setting: the same measure for `C=CC(=O)N1CCN(c2nc(=O)n(-c3c(C)ccnc3C(C)C)c3nc(-c4c(F)c(F)c(F)c(N)c4Cl)c(F)cc23)C[C@H]1C` [Compound 6, 4-((R)-4-acryloyl-3-methylpiperazin-1-yl)-7-(3-amino-2-chloro-4,5,6-trifluorophenyl)-6-fluoro-1-(2-isopropyl-4-methylpyridin-3-yl)pyrido[2,3-d]pyrimidin-2(1H)-one]: 40.1 nM.

These data come from patent US11345701B1, “KRAS mutant protein inhibitors” (Jacobio Pharmaceuticals Co., Ltd., priority 2021, dated 2022).
